Source: PubChem BioAssay AID248 (DTP/NCI, 2004)
Where “and” joins values, the source holds several entries; their conditions need not be identical. Identical values can stand only once. Toxic doses and inconclusive results are not listed. No stated cut-off is given here; in the data, active means T/C of 150% or more; inactive means T/C below 125%.

Tested on: L1210 leukemia ip in BDF1 mice, survival T/C
Test: NCI In Vivo Anticancer Drug Screen. Data for tumor model L1210 Leukemia (intraperitoneal) in B6D2F1 (BDF1) mice
Conditions: endpoint: mean survival time, higher = longer survival
Summary of the method: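 Tumor was transplanted into mice, which were then dosed with test compound or vehicle alone. Survival was recorded for each group, and the treated figure was expressed relative to the control figure.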

[1] = dose: 100.0 mg/kg/injection, schedule: Q01DX001 (ip), vehicle: carboxymethylcellulose (CMC)
[2] = dose: 100.0 mg/kg/injection, schedule: Q04DX003 (ip), vehicle: carboxymethylcellulose (CMC)
[3] = dose: 200.0 mg/kg/injection, schedule: Q01DX001 (ip), vehicle: carboxymethylcellulose (CMC)
[4] = dose: 200.0 mg/kg/injection, schedule: Q04DX003 (ip), vehicle: carboxymethylcellulose (CMC)
[5] = dose: 400.0 mg/kg/injection, schedule: Q01DX001 (ip), vehicle: carboxymethylcellulose (CMC)
[6] = dose: 400.0 mg/kg/injection, schedule: Q04DX003 (ip), vehicle: carboxymethylcellulose (CMC)
[7] = dose: 50.0 mg/kg/injection, schedule: Q01DX009 (ip), vehicle: saline with Tween-80
[8] = dose: 100.0 mg/kg/injection, schedule: Q01DX009 (ip), vehicle: saline with Tween-80
[9] = dose: 200.0 mg/kg/injection, schedule: Q01DX009 (ip), vehicle: saline with Tween-80
[10] = dose: 100.0 mg/kg/injection, schedule: Q01DX009 (ip), vehicle: Klucel (hydroxypropylcellulose) (HPC)
[11] = dose: 200.0 mg/kg/injection, schedule: Q01DX009 (ip), vehicle: Klucel (hydroxypropylcellulose) (HPC)
[12] = dose: 400.0 mg/kg/injection, schedule: Q01DX009 (ip), vehicle: Klucel (hydroxypropylcellulose) (HPC)
[13] = dose: 100.0 mg/kg/injection, schedule: Q04DX003 (ip), vehicle: Klucel (hydroxypropylcellulose) (HPC)
[14] = dose: 200.0 mg/kg/injection, schedule: Q04DX003 (ip), vehicle: Klucel (hydroxypropylcellulose) (HPC)
[15] = dose: 400.0 mg/kg/injection, schedule: Q04DX003 (ip), vehicle: Klucel (hydroxypropylcellulose) (HPC)
[16] = dose: 100.0 mg/kg/injection, schedule: Q04DX003 (ip), vehicle: saline with Tween-80
[17] = dose: 200.0 mg/kg/injection, schedule: Q04DX003 (ip), vehicle: saline with Tween-80

Measured: T/C

OC12CC[N+](Cc3ccccc3)(CC1)CC2
inactive: dose: 75.0 mg/kg/injection, schedule: Q01DX001 (ip), vehicle: saline 104 % of control | dose: 150.0 mg/kg/injection, schedule: Q01DX001 (ip), vehicle: saline 100 % of control

CC(C)(C)C1(C)CC1(Br)Br (configuration not stated)
inactive: dose: 50.0 mg/kg/injection, schedule: Q01DX009 (ip), vehicle: saline 98 % of control | dose: 100.0 mg/kg/injection, schedule: Q01DX009 (ip), vehicle: saline 101 % of control | dose: 200.0 mg/kg/injection, schedule: Q01DX009 (ip), vehicle: saline 98 % of control

OCC1(c2ccccc2)CCCC1(CO)c1ccccc1 (configuration not stated)
inactive: dose: 15.0 mg/kg/injection, schedule: Q01DX001 (ip), vehicle: carboxymethylcellulose (CMC) 95 % of control | dose: 30.0 mg/kg/injection, schedule: Q01DX001 (ip), vehicle: carboxymethylcellulose (CMC) 93 % of control | dose: 60.0 mg/kg/injection, schedule: Q01DX001 (ip), vehicle: carboxymethylcellulose (CMC) 91 % of control

COc1cc2cc3c4cc(OC)c(OC)cc4cc[n+]3c(/C=C/c3ccc(Cl)cc3)c2cc1OC
inactive: [1] 93 % of control and 99 % of control | dose: 100.0 mg/kg/injection, schedule: Q04DX002 (ip), vehicle: carboxymethylcellulose (CMC) 102 % of control and 103 % of control | [2] 100 % of control and 103 % of control | [3] 99 % of control and 114 % of control | dose: 200.0 mg/kg/injection, schedule: Q04DX002 (ip), vehicle: carboxymethylcellulose (CMC) 94 % of control and 105 % of control | [4] 95 % of control and 117 % of control | [5] 94 % of control and 111 % of control | dose: 400.0 mg/kg/injection, schedule: Q04DX002 (ip), vehicle: carboxymethylcellulose (CMC) 102 % of control and 113 % of control | [6] 100 % of control and 92 % of control

Cc1cc(N(C)C)cc(C)c1N=Nc1cc[n+]([O-])cc1
inactive: dose: 12.5 mg/kg/injection, schedule: Q04DX003 (ip), vehicle: saline with Tween-80 98 % of control | dose: 25.0 mg/kg/injection, schedule: Q04DX003 (ip), vehicle: saline with Tween-80 98 % of control | [7] 95 % of control | dose: 50.0 mg/kg/injection, schedule: Q04DX003 (ip), vehicle: saline with Tween-80 100 % of control | [8] 91 % of control | [9] 91 % of control

O=C(CNS(=O)(=O)c1ccccc1)c1ccc(Cl)cc1Cl
inactive: [10] 94 % of control | [11] 105 % of control | [12] 95 % of control

CCC(CC)(Cc1ccccc1)C(=O)NC(=O)NO
inactive: dose: 25.0 mg/kg/injection, schedule: Q01DX Z (ip), vehicle: methylcellulose (MC) 98 % of control | dose: 50.0 mg/kg/injection, schedule: Q01DX Z (ip), vehicle: methylcellulose (MC) 101 % of control | dose: 100.0 mg/kg/injection, schedule: Q01DX Z (ip), vehicle: methylcellulose (MC) 98 % of control

Nc1nc2c(=O)[nH]cnc2n1C1OC(CO)C(O)C1O (configuration not stated)
inactive: dose: 5.0 mg/kg/injection, schedule: Q01DX001 (ip), vehicle: saline 102 % of control | dose: 10.0 mg/kg/injection, schedule: Q01DX001 (ip), vehicle: saline 104 % of control | dose: 20.0 mg/kg/injection, schedule: Q01DX001 (ip), vehicle: saline 102 % of control

NC(=O)C1OC(n2cnc3c(N)ncnc32)C(O)C1O (configuration not stated)
inactive: dose: 0.09 mg/kg/injection, schedule: Q01DX009 (ip), vehicle: saline 101 % of control | dose: 0.19 mg/kg/injection, schedule: Q01DX005 (ip), vehicle: saline 114 % of control | dose: 0.19 mg/kg/injection, schedule: Q01DX009 (ip), vehicle: saline 100 % of control | dose: 0.39 mg/kg/injection, schedule: Q01DX009 (ip), vehicle: saline 107 % of control | dose: 0.78 mg/kg/injection, schedule: Q01DX009 (ip), vehicle: saline 103 % of control | dose: 1.56 mg/kg/injection, schedule: Q01DX009 (ip), vehicle: saline 114 % of control

Cc1cc([N+](=O)[O-])c(Nc2cccc(O)c2)c([N+](=O)[O-])c1
inactive: [10] 108 % of control | [13] 101 % of control | [11] 102 % of control | [14] 95 % of control | [12] 116 % of control | [15] 101 % of control

C=CCN(CC=C)c1nc(-c2ccccc2)nc(-c2ccccc2)n1
inactive: dose: 25.6 mg/kg/injection, schedule: Q04DX002 (ip), vehicle: saline with Tween-80 93 % of control | dose: 64.0 mg/kg/injection, schedule: Q04DX002 (ip), vehicle: saline with Tween-80 93 % of control | [16] 92 % of control | dose: 160.0 mg/kg/injection, schedule: Q04DX002 (ip), vehicle: saline with Tween-80 93 % of control | [17] 92 % of control | dose: 400.0 mg/kg/injection, schedule: Q04DX002 (ip), vehicle: saline with Tween-80 89 % of control | dose: 400.0 mg/kg/injection, schedule: Q04DX003 (ip), vehicle: saline with Tween-80 92 % of control

CC(=O)c1cccc(NC(=O)Nc2nccs2)c1
inactive: dose: 100.0 mg/kg/injection, schedule: Q01DX001 (ip), vehicle: Klucel (hydroxypropylcellulose) (HPC) 100 % of control | [10] 101 % of control and 92 % of control | dose: 100.0 mg/kg/injection, schedule: Q04DX002 (ip), vehicle: Klucel (hydroxypropylcellulose) (HPC) 101 % of control and 91 % of control | [13] 101 % of control | dose: 200.0 mg/kg/injection, schedule: Q01DX001 (ip), vehicle: Klucel (hydroxypropylcellulose) (HPC) 104 % of control | [11] 104 % of control | dose: 200.0 mg/kg/injection, schedule: Q04DX002 (ip), vehicle: Klucel (hydroxypropylcellulose) (HPC) 104 % of control and 109 % of control | [14] 103 % of control | dose: 400.0 mg/kg/injection, schedule: Q01DX001 (ip), vehicle: Klucel (hydroxypropylcellulose) (HPC) 96 % of control | [12] 109 % of control and 88 % of control | dose: 400.0 mg/kg/injection, schedule: Q04DX002 (ip), vehicle: Klucel (hydroxypropylcellulose) (HPC) 96 % of control | [15] 96 % of control

O=C1CC2CCCCC2O1 (configuration not stated)
inactive: [7] 96 % of control | dose: 75.0 mg/kg/injection, schedule: Q01DX001 (ip), vehicle: other 103 % of control | [8] 88 % of control | dose: 150.0 mg/kg/injection, schedule: Q01DX001 (ip), vehicle: other 97 % of control and 115 % of control

Cc1ccc(N=C=O)cc1[N+](=O)[O-]
inactive: dose: 100.0 mg/kg/injection, schedule: Q01DX009 (ip), vehicle: gum acacia 100 % of control | dose: 100.0 mg/kg/injection, schedule: Q04DX003 (ip), vehicle: gum acacia 98 % of control | dose: 200.0 mg/kg/injection, schedule: Q01DX009 (ip), vehicle: gum acacia 89 % of control | dose: 200.0 mg/kg/injection, schedule: Q04DX003 (ip), vehicle: gum acacia 101 % of control | dose: 400.0 mg/kg/injection, schedule: Q01DX009 (ip), vehicle: gum acacia 94 % of control | dose: 400.0 mg/kg/injection, schedule: Q04DX003 (ip), vehicle: gum acacia 90 % of control

O=C(O)c1ccc(OCCOc2ccc([N+](=O)[O-])cc2)c(Cl)c1
inactive: [1] 95 % of control and 105 % of control | dose: 100.0 mg/kg/injection, schedule: Q01DX009 (ip), vehicle: carboxymethylcellulose (CMC) 92 % of control and 89 % of control | dose: 100.0 mg/kg/injection, schedule: Q04DX002 (ip), vehicle: gum acacia 101 % of control | [2] 95 % of control and 86 % of control | [3] 101 % of control and 103 % of control | dose: 200.0 mg/kg/injection, schedule: Q01DX009 (ip), vehicle: carboxymethylcellulose (CMC) 93 % of control and 100 % of control | dose: 200.0 mg/kg/injection, schedule: Q04DX002 (ip), vehicle: gum acacia 98 % of control and 99 % of control | [4] 95 % of control and 90 % of control | [5] 100 % of control | dose: 400.0 mg/kg/injection, schedule: Q04DX002 (ip), vehicle: gum acacia 94 % of control and 98 % of control | [6] 90 % of control and 91 % of control

CCN(CC)c1ccc(NC(=O)NC(C)C)cc1
inactive: [7] 101 % of control | [8] 108 % of control | [16] 105 % of control | [9] 97 % of control | [17] 103 % of control

O=C(c1ccc(Cl)cc1)c1ccc(Cl)cc1
inactive: [13] 105 % of control | [14] 100 % of control | [15] 96 % of control
